Patent US8445636B2, “Antimicrobial and anticancer lipopeptides” (Yeda Research & Development Co. Ltd., priority 2003, dated 2013)
In brackets after ≈: the same amount, converted by molar mass. Positions of bridges follow the written chain, without caps; N, C: chain ends. Non-standard residues stand in square brackets, D forms with d. Residues, ends and D or L forms follow the SMILES beside them. *: point of attachment. Palmitoyl = CCCCCCCCCCCCCCCC(=O)*; Myristoyl = CCCCCCCCCCCCCC(=O)*

What was measured:
[1] = Cytotoxicity, XTT viability, non-cancer cells; format: cell-based; conditions: mouse, non-cancer cell line, 24 h incubation, read-out: LC50, 3T3
Method: (§1) Prostate cancer cell lines (CL1 and 22RV1; ATCC, USA) were grown in RPMI-1640 supplemented with 10% FCS (Biological Industries, Beit Haemek, Israel). N1H-3T3 mouse fibroblast cell line (ATCC, USA) was grown in DMEM supplemented with 10% bovine serum. To test cytotoxicity against the cancer cells, aliquots of medium containing 1×10^4 cells were distributed into a 96-well plate (Falcon). After one day, the media were replaced with 90 μl of fresh media and 10 μl of a solution containing different concentrations of the peptides. The plate was then incubated for 24 h before adding to each well 50 μl of XTT reaction solution (Biological Industries, Beit Haemek, Israel); viability was determined as previously described (Papo et al., (2003) J. Biol. Chem. 278:21018-23). The LC50 (concentration at which 50% of the cells die) for each peptide was obtained from the dose-dependent cell viability curves.

[2] = system: Prostate cancer cell line CL1; test: Cytotoxicity, XTT viability; format: cell-based, human; conditions: 24 h incubation, read-out: LC50, Prostate cancer CL1
Method: as §1

[3] = system: Prostate cancer cell line 22RV1; test: Cytotoxicity, XTT viability; format: cell-based, human; conditions: 24 h incubation, read-out: LC50, Prostate cancer 22RV1
Method: as §1

E. coli D21 = format: cell-based; conditions: D21, pH 7.4
[4] = system: Candida albicans ATCC 10231; test: microbe, parasite or virus in culture; format: cell-based; conditions: ATCC 10231, pH 7.4; for MIC: read-out: Minimal Inhibitory Concentration, Candida Albicans (ATCC 10231)
Outline: (§2)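 In this assay, each strain, prepared at 1×10^4 CFU/ml before mixing, met serial twofold peptide dilutions in RPMI 1640 buffered with 0.165 M MOPS. Unless noted, pH was 7.4; a pH 5.5 condition was also run. After 24-48 h incubation (35 °C, agitated), wells were scored at 620 nm for total inhibition.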

[5] = system: Cryptococcus neoformans ATCC MYA-422; test: microbe, parasite or virus in culture; format: cell-based; conditions: ATCC MYA-422, pH 7.4
[6] = system: Acinetobacter baumannii ATCC 19606; format: cell-based; conditions: ATCC 19606, pH 7.4
Outline: (§3)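 MIC = lowest concentration with 100% growth inhibition, judged from A600 after 18-20 h incubation at 37° C. Bacteria at 1×10^6 CFU/ml in LB (pH 7.4 unless pH 5.5 stated) combined with equal volume of serially 2-fold diluted lipopeptide.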

M. laleus = format: cell-based; conditions: Table 3, short lipopeptides; pH 7.4
Outline: as §3

[7] = system: Staphylococcus aureus ATCC 6538P; format: cell-based; conditions: ATCC 6538, pH 7.4
Outline: as §3

[8] = system: Pseudomonas aeruginosa ATCC 27853; format: cell-based; conditions: ATCC 27853, pH 7.4
Outline: as §3

[9] = system: Aspergillus fumigatus ATCC 26430; test: microbe, parasite or virus in culture; format: cell-based; conditions: ATCC 26430, pH 7.4
[10] = system: Cryptococcus neoformans ATCC 66031; test: microbe, parasite or virus in culture; format: cell-based; conditions: ATCC 66031, pH 7.4
Outline: as §2

B. subtilis ATCC 6051 = format: cell-based; conditions: ATCC 6051, pH 7.4
[11] = system: Enterococcus faecalis ATCC 29212; format: cell-based; conditions: ATCC 29212, pH 7.4
Outline: as §3

[12] = system: Enterobacter cloacae ATCC 49141; format: cell-based; conditions: ATCC 49141, pH 7.4
Outline: as §3

[13] = system: methicilin-resistant Staphylococcus aureus (MRSA) ATCC 700698; format: cell-based; conditions: ATCC 700698, pH 7.4
Outline: as §3

[14] = system: vancomycin-resistant Enterococcus faecium (VRE) ATCC 700221; format: cell-based; conditions: for Minimal Inhibitory Concentration, E. faecium (VRE): ATCC 700221, pH 7.4
Outline: as §3

[15] = system: Escherichia coli ATCC 25922; format: cell-based; conditions: ATCC 25922, pH 7.4
Outline: as §3

[16] = system: Aspergillus flavus ATCC 9643; format: cell-based; conditions: ATCC 9643, pH 7.4
[17] = system: Aspergillus niger ATCC 9642; format: cell-based; conditions: ATCC 9642, pH 7.4
Method: The antifungal activity of the lipopeptides was examined in sterile 96-well plates (Nunc F96 microtiter plates) in a final volume of 200 μL as follows: 100 µl of a suspension containing fungi at a concentration of 1×10^4 Colony-Forming Units (CFU)/ml in culture medium (RPMI 1640, 0.165 M MOPS with L-glutamine, without NaHCO3) at pH 7.4 or pH 5.5 (adjustment of the pH was done by diluted solutions of HCl and NaOH) were added to 100 μl of water containing the peptide in serial 2-fold dilutions in water. The fungi were incubated in the presence of the lipopeptides for 24-48 h at 35° C. in a Binder KB115 incubator under agitation. Growth inhibition was determined by measuring the absorbance at 620 nm with a Microplate autoreader E1309 (Bio-Tek Instruments). Antifungal activity is expressed as the minimal inhibitory concentration (MIC), the concentration at which 100% inhibition of fungi growth was observed after the incubation time mentioned above. The fungi used were: Aspergillus niger ATCC 9642, Candida albicans ATCC 10231 and Cryptococcus neoformans ATCC 66031. If not indicated otherwise, the fungi growth was detected at pH 7.4.

in vitro [18] = format: in vitro ADME, bovine; conditions: isolated enzyme trypsin, pH 7.3
Method: (§4) Equal amounts of the lipopeptides were dissolved in PBS (35 mM phosphate buffer/0.15 M NaCl, pH 7.3) to yield a final concentration of 140 μM to which 25 μM of either pepsin (from porcine stomach mucosa, Sigma), trypsin (from bovine pancreas, Sigma), or elastase (from human leukocytes, Sigma) were added. The samples were incubated under agitation for 30 min at 37° C. After addition of the appropriate protease inhibitor to stop the reaction, aliquots of the proteolytic digest were injected to C18 HPLC column and the amounts of the intact lipopeptide were evaluated using their absorbance at 215 nm.

in vitro [19] = format: in vitro ADME, porcine; conditions: pig, isolated enzyme pepsin, pH 7.3
Method: as §4

[20] = Resistance to proteolytic digestion, intact lipopeptide by HPLC; format: in vitro ADME; conditions: human, elastase from human leukocytes; 140 μM lipopeptide, 25 μM protease, 30 min at 37° C., PBS pH 7.3
Method: as §4

Row | Compound | MIC [4] [µM] | Minimal Inhibitory Concentration, A. baumannii ATCC 19606 [6] [µM] | Minimal Inhibitory Concentration, S. aureus ATCC 6538P [7] [µM] | Minimal Inhibitory Concentration, P. aeruginosa ATCC 27853 [8] [µM] | Minimal Inhibitory Concentration, C. neoformans ATCC 66031 [10] [µM] | Minimal Inhibitory Concentration, C. albicans ATCC 10231 [4] [µM] | Minimal Inhibitory Concentration, E. faecalis [11] [µM] | Minimal Inhibitory Concentration, E. cloacae [12] [µM] | Minimal Inhibitory Concentration, A. Baumaannii [6] [µM] | Minimal Inhibitory Concentration, S. aureus (MRSA) [13] [µM] | Minimal Inhibitory Concentration, S. aureus [7] [µM] | Minimal Inhibitory Concentration, P. Aeruginosa [8] [µM] | Minimal Inhibitory Concentration, E. faecium (VRE) [14] [µM] | Minimal Inhibitory Concentration, E. coli [15] [µM] | Minimal Inhibitory Concentration, A. fumigatus ATCC 26430 [9] [µM] | metabolised at 0.5 h, 140 μM (in vitro [18]) [%] | metabolised at 0.5 h, 140 μM (in vitro [19]) [%] | metabolised at 0.5 h, 140 μM [20] [%] | further results
1 | CC(C)C[C@@H](N)C(=O)N[C@@H](CCCNC(=N)N)C(=O)N[C@@H](CCCNC(=N)N)C(=O)N[C@H](CC(C)C)C(=O)N[C@H](CC(C)C)C(=O)N[C@@H](CCCNC(=N)N)C(=O)N[C@@H](CCCNC(=N)N)C(=O)N[C@H](CC(C)C)C(=O)N[C@H](CC(C)C)C(=O)N[C@@H](CCCNC(=N)N)C(=O)N[C@@H](CCCNC(=N)N)C(=O)N[C@H](CC(C)C)C(N)=O [DL6R6, LRRLLRRLLRRL, reference compound] (H-[dL]RR[dL][dL]RR[dL][dL]RR[dL]-NH2; N-terminus assumed) |  |  |  |  |  |  |  |  |  |  |  |  |  |  |  |  |  |  | CC50 at 24 h [1]: > 100 µM; CC50 [2]: > 100 µM; CC50 [3]: 50 µM
2 | CCCCCCCCCCCCCCCC(=O)N[C@@H](CCCCN)C(=O)N[C@H](CCCCN)C(N)=O [PA-KK, Palmitoyl-Lys-D-Lys-NH2] | 12.5 (≈ 6.4 µg/mL) | 100 | 6.25 | 100 |  |  |  |  |  |  |  |  |  |  |  |  |  |  | Minimal Inhibitory Concentration, E. coli-D21 (E. coli D21): 6.25 µM; MIC ([5]; read-out: Minimal Inhibitory Concentration, Cyrptococcus neoformans (ATCC MYA-422)): 2.5 µM (≈ 1.28 µg/mL); Minimal Inhibitory Concentration, M. laleus (M. laleus): 3.12 µM; MIC ([9]; read-out: Minimal Inhibitory Concentration, Aspergillus Fomigatus (ATCC 26430)): 6.25 µM (≈ 3.2 µg/mL)
3 | CCCCCCCCCCCCCCCC(=O)N[C@H](CCCCN)C(=O)NCC(=O)NCC(=O)NCC(=O)N[C@H](CCCCN)C(=O)NCC(=O)NCC(=O)NCC(=O)N[C@H](CCCCN)C(=O)NCC(=O)NCC(=O)N[C@H](CCCCN)C(N)=O [lipopeptide 2, (CH3—(CH2)14—CO—)-D-Lys-Gly-Gly-Gly-D-Lys-Gly-Gly-Gly-D-Lys-Gly-Gly-D-Lys-NH2] (Palmitoyl-[dK]GGG[dK]GGG[dK]GG[dK]-NH2) | 3.125 (≈ 3.83 µg/mL) | 25 | 12.5 | 6.25 | 6.25 | 3.125 | 12.5 | 25 | 25 | 12.5 | 12.5 | 6.25 | 3.125 | 25 | 12.5 |  |  |  | Minimal Inhibitory Concentration, B. subtilis (ATCC 6051) (B. subtilis ATCC 6051): 3.125 µM; Minimal Inhibitory Concentration, Cryptococcus neoformans (ATCC MYA-422) [5]: 6.25 µM; activity against VRE ([14]; in words, summary of Table 4): highly active; Minimal Inhibitory Concentration, E. coli (ATCC 25922) [15]: 25 µM; Minimal Inhibitory Concentration, Aspergillus flavus (ATCC 9643) [16]: 100 µM; Minimal Inhibitory Concentration, Aspergillus niger (ATCC 9642) [17]: 6.25 µM; Minimal Inhibitory Concentration, Aspergillus fumigatus (ATCC 26430) [9]: 12.5 µM
4 | CCCCCCCCCCCCCC(=O)N[C@@H](CCCCN)C(=O)NCC(=O)NCC(=O)NCC(=O)N[C@@H](CCCCN)C(=O)NCC(=O)NCC(=O)NCC(=O)N[C@@H](CCCCN)C(=O)NCC(=O)NCC(=O)N[C@@H](CCCCN)C(N)=O [lipopeptide 3, (CH3—(CH2)12—CO—)-Lys-Gly-Gly-Gly-Lys-Gly-Gly-Gly-Lys-Gly-Gly-Lys-NH2] (Myristoyl-KGGGKGGGKGGK-NH2) |  |  |  |  | 3.125 | 3.125 | 6.25 | 6.25 | 12.5 | 6.25 | 6.25 | 6.25 | 12.5 | 6.25 | 6.25 |  |  |  | 
5 | CCCCCCCCCCCCCC(=O)N[C@H]1CSSC[C@@H](C(N)=O)NC(=O)[C@@H](CCCCN)NC(=O)CNC(=O)CNC(=O)[C@@H](CCCCN)NC(=O)CNC(=O)CNC(=O)CNC(=O)[C@@H](CCCCN)NC(=O)CNC(=O)CNC(=O)CNC(=O)[C@@H](CCCCN)NC1=O [lipopeptide 16] (Myristoyl-C[dK]GGG[dK]GGG[dK]GG[dK]C-NH2; disulfide 1-14) |  |  |  |  |  |  |  |  |  |  |  |  |  |  |  | 0 | 0 | 0 | 
6 | CCCCCCCCCCCCCC(=O)N[C@H]1CSSC[C@@H](C(N)=O)NC(=O)[C@H](CCCCN)NC(=O)CNC(=O)CNC(=O)[C@H](CCCCN)NC(=O)CNC(=O)CNC(=O)CNC(=O)[C@H](CCCCN)NC(=O)CNC(=O)CNC(=O)CNC(=O)[C@H](CCCCN)NC1=O [lipopeptide 19] (Myristoyl-CKGGGKGGGKGGKC-NH2; disulfide 1-14) |  |  |  |  |  |  |  |  |  |  |  |  |  |  |  | 100 | 100 | 100 | 
